According to patent US20120252721A1 (priority 2011, published 2012):

How the values were obtained:
[1] = tested on: 1a-luc L31F (HCV genotype 1a replicon); assay: Luciferase replicon transient transfection assay, 1a-luc L31F; format: cell-based, hepatitis C virus
Description: (§1) The luciferase replicon transient transfection assay measures the ability of a test compound to inhibit the replication of a transiently-transfected HCV luciferase-bearing wild-type or mutant replicon in cured human hepatoma cells (Huh7.5). The inhibition of HCV replication was measured by quantification of luciferase protein expression. This assay has been validated using a panel of genotype 1a and 1b replicons bearing mutations known to be associated with resistance to BMS-790052. Briefly, subconfluent Huh7.5 cells were electroporated with 10 μg of wild-type or mutant luciferase-bearing HCV replicon RNA. The cells were then seeded in 96-well opaque white plates at 3×10^4 cells/well in 150 μL/well and incubated for 4 hrs at 37° C./5% CO2. Ten 1:5 serial dilutions of each test compound were made in media (DMEM containing glucose, L-glutamine and sodium pyruvate, 10% fetal bovine serum, 100 IU/mL penicillin, 100 μg/mL streptomycin, 2 mM GlutaMAX, and 1×MEM non-essential amino acids (Mediatech, Inc. and Invitrogen Corp.)) at concentrations that were 4× higher than the final concentrations to be tested and 50 μL/well was added to the transfected cells. Untreated, mock-transfected cells served as a negative control of luciferase expression. The plates were incubated at 37° C./5% CO2 for 4 days whereupon the media was removed and 50 μL of ONE-glo luciferase substrate (Promega) was added to each well. The plates were agitated on a rotating platform at room temperature for 3 min and read in a Victor^3V microplate reader (Perkin-Elmer) using a 700 nm cut-off filter with a 1 sec read time. EC50 values were calculated from dose response curves from the resulting best-fit equations determined by Microsoft Excel and XLfit 4.1 software.

[2] = tested on: 1a-luc P32L (HCV genotype 1a replicon); assay: Luciferase replicon transient transfection assay, 1a-luc P32L; format: cell-based, hepatitis C virus
Description: as §1

[3] = tested on: 1a-luc WT (HCV genotype 1a replicon); assay: Luciferase replicon transient transfection assay, 1a-luc WT; format: cell-based; details: Hepatitis C virus, 96 h, Huh7.5 cells, 4 days
Description: as §1

[4] = tested on: 1a-luc Q30K (HCV genotype 1a replicon); assay: Luciferase replicon transient transfection assay, 1a-luc Q30K; format: cell-based, hepatitis C virus
Description: as §1

[5] = tested on: ZS11-luc Y93H (HCV genotype 1b replicon); assay: Luciferase replicon transient transfection assay, ZS11-luc Y93H; format: cell-based, hepatitis C virus
Description: as §1

[6] = tested on: ZS11-luc L28T (HCV genotype 1b replicon); assay: Luciferase replicon transient transfection assay, ZS11-luc L28T; format: cell-based, hepatitis C virus
Description: as §1

[7] = tested on: ZS11-luc L31F (HCV genotype 1b replicon); assay: Luciferase replicon transient transfection assay, ZS11-luc L31F; format: cell-based, hepatitis C virus
Description: as §1

[8] = tested on: 1a-luc Y93C (HCV genotype 1a replicon); assay: Luciferase replicon transient transfection assay, 1a-luc Y93C; format: cell-based, hepatitis C virus
Description: as §1

[9] = tested on: ZS11-luc L31V (HCV genotype 1b replicon); assay: Luciferase replicon transient transfection assay, ZS11-luc L31V; format: cell-based, hepatitis C virus
Description: as §1

[10] = tested on: ZS11-luc Y93N (HCV genotype 1b replicon); assay: Luciferase replicon transient transfection assay, ZS11-luc Y93N; format: cell-based, hepatitis C virus
Description: as §1

[11] = tested on: ZS11-luc R30E (HCV genotype 1b replicon); assay: Luciferase replicon transient transfection assay, ZS11-luc R30E; format: cell-based, hepatitis C virus
Description: as §1

[12] = tested on: 1a-luc Y93H (HCV genotype 1a replicon); assay: Luciferase replicon transient transfection assay, 1a-luc Y93H; format: cell-based, hepatitis C virus
Description: as §1

[13] = tested on: ZS11-luc L31M (HCV genotype 1b replicon); assay: Luciferase replicon transient transfection assay, ZS11-luc L31M; format: cell-based, hepatitis C virus
Description: as §1

[14] = tested on: HCV genotype 1a replicon, NS5A K24E; assay: Luciferase replicon transient transfection assay, genotype 1a NS5A K24E; format: cell-based, hepatitis C virus
Description: as §1

[15] = tested on: ZS11-luc WT (HCV genotype 1b replicon); assay: Luciferase replicon transient transfection assay, ZS11-luc WT; format: cell-based, hepatitis C virus; details: Hepatitis C virus, Huh7.5, 96 h, genotype 1b, ZS11-luc WT, Huh7.5 cells, 4 days
Description: as §1

[16] = tested on: HCV genotype 1a replicon, NS5A E295G; assay: Luciferase replicon transient transfection assay, genotype 1a NS5A E295G; format: cell-based, hepatitis C virus
Description: as §1

[17] = tested on: 1a-luc L31M (HCV genotype 1a replicon); assay: Luciferase replicon transient transfection assay, 1a-luc L31M; format: cell-based, hepatitis C virus
Description: as §1

[18] = tested on: 1a-luc Q30R (HCV genotype 1a replicon); assay: Luciferase replicon transient transfection assay, 1a-luc Q30R; format: cell-based, hepatitis C virus
Description: as §1

[19] = tested on: HCV genotype 1a replicon, NS3 T260A; assay: Luciferase replicon transient transfection assay, genotype 1a NS3 T260A; format: cell-based, hepatitis C virus
Description: as §1
(§2) To determine the replication capacity of each mutant relative to the wild-type parental replicon, transfected cells were plated on two plates and were not treated with compound. Luciferase activity was measured at time points of 4 hrs and 4 days after plating for each replicon. Replication capacity was calculated by dividing the day 4 CPS by the 4 hour CPS for each replicon and determining the percentage present for each mutant replicon relative to wild-type replicon values. The NS3, NS4B, and NS5B mutants were prepared and tested according to the methods described herein.

[20] = tested on: 1a-luc Q30E (HCV genotype 1a replicon); assay: Luciferase replicon transient transfection assay, 1a-luc Q30E; format: cell-based, hepatitis C virus
Description: as §1

[21] = tested on: ZS11-luc Y93C (HCV genotype 1b replicon); assay: Luciferase replicon transient transfection assay, ZS11-luc Y93C; format: cell-based, hepatitis C virus
Description: as §1

[22] = tested on: ZS11-luc P32L (HCV genotype 1b replicon); assay: Luciferase replicon transient transfection assay, ZS11-luc P32L; format: cell-based, hepatitis C virus
Description: as §1

[23] = tested on: 1a-luc Q30H (HCV genotype 1a replicon); assay: Luciferase replicon transient transfection assay, 1a-luc Q30H; format: cell-based, hepatitis C virus
Description: as §1

[24] = tested on: 1a-luc Y93N (HCV genotype 1a replicon); assay: Luciferase replicon transient transfection assay, 1a-luc Y93N; format: cell-based, hepatitis C virus
Description: as §1

[25] = tested on: 1a-luc M28T (HCV genotype 1a replicon); assay: Luciferase replicon transient transfection assay, 1a-luc M28T; format: cell-based, hepatitis C virus
Description: as §1

[26] = tested on: HCV genotype 1a replicon, NS4B E15G; assay: Luciferase replicon transient transfection assay, genotype 1a NS4B E15G; format: cell-based, hepatitis C virus
Description: as §1, §2

[27] = tested on: 1a-luc L31V (HCV genotype 1a replicon); assay: Luciferase replicon transient transfection assay, 1a-luc L31V; format: cell-based, hepatitis C virus
Description: as §1

[28] = Hepatitis C virus, 96 h, Huh7.5 cells, 4 days

## COC(=O)N[C@H](C(=O)N1CCC[C@H]1c1nc(-c2ccc(-c3ccc(-c4c[nH]c([C@@H]5CCCN5C(=O)[C@@H](NC(=O)OC)C(C)C)n4)cc3)cc2)c[nH]1)C(C)C [BMS-790052, reference compound]
[1]
  Ratio: 43
[1]; [28]
  EC50: 1000 pM
[2]
  Ratio: 142
[2]; [28]
  EC50: 4000 pM
[3]
  EC50: 26 pM
[4]
  Ratio: 752
[4]; [28]
  EC50: 19000 pM
[5]
  Ratio: 19
[5]; [28]
  EC50: 400 pM
[6]
  Ratio: 25
[6]; [28]
  EC50: 500 pM
[7]
  Ratio: 7
[7]; [28]
  EC50: 100 pM
[8]
  Ratio: 287
[8]; [28]
  EC50: 7000 pM
[9]
  Ratio: 23
[9]; [28]
  EC50: 400 pM
[10]
  Ratio: 33
[10]; [28]
  EC50: 700 pM
[11]
  Ratio: 7
[11]; [28]
  EC50: 100 pM
[12]
  Ratio: 1392
[12]; [28]
  EC50: 35000 pM
[13]
  Ratio: 3
[13]; [28]
  EC50: 60 pM
[14]; Hepatitis C virus, genotype 1a, HCV region NS5A, mutation K24E
  EC50: 32 pM
[14]; {}
  Ratio: 1.78
[15]
  EC50: 20 pM
[16]; Hepatitis C virus, genotype 1a, HCV region NS5A, mutation E295G
  EC50: 28 pM
[16]; {}
  Ratio: 1.56
[17]
  Ratio: 115
[17]; [28]
  EC50: 3000 pM
[18]
  Ratio: 95
[18]; [28]
  EC50: 2000 pM
[19]; Hepatitis C virus, genotype 1a, HCV region NS3, mutation T260A
  EC50: 31 pM
[19]; {}
  Ratio: 1.74
[20]
  Ratio: 2935
[20]; [28]
  EC50: 74000 pM
[21]
  Ratio: 2
[21]; [28]
  EC50: 40 pM
[22]
  Ratio: 9
[22]; [28]
  EC50: 200 pM
[23]
  Ratio: 155
[23]; [28]
  EC50: 4000 pM
[24]
  Ratio: 7842
[24]; [28]
  EC50: 192000 pM
[25]
  Ratio: 165
[25]; [28]
  EC50: 4000 pM
[26]; Hepatitis C virus, HCV region NS4B, mutation E15G
  EC50: 29 pM
[26]; NS4B E15G
  Ratio: 1.62
[27]
  Ratio: 899
[27]; [28]
  EC50: 23000 pM
